For assay [1], the target named is HPK full length, T165E S171E (Homo sapiens (Human), UniProt Q92918, S171E/T165E). Put plainly: HPK1-FL HTRF enzymatic assay ("HTRF"). To be noted: ATP 1 mM, read-out: HPK1 Ki. The class given is biochemical. In outline:
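Full-length HPK1 (T165E/S171E) was preincubated 30 min with compound, then reacted 60 min with biotin-SLP-76 and 1 mM ATP. Phospho-SLP-76 was detected by HTRF (Eu-anti-pSLP76 antibody, SA-XL665) after a further 60 min.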
(In TR-FRET formats the signal depends on donor and acceptor labels being close together.)

Assay [2] relates to primary human pan T cells. Put plainly: Human T-cell IL2 induction assay. In kind it is cell-based. The protocol: Assay Principle: Anti-CD3 and anti-CD28 activates TCR signaling in primary human pan T cells leading to IL-2 promoter induction. Secreted IL-2 in cell culture supernatant is detected by electrochemiluminescence using a capture antibody against IL-2 and an anti-IL-2 antibody labeled with SULFO-tag. Also see www.mesoscale.com for additional electrochemiluminescence technology information.
Assay Procedure: Incubate primary human pan T cells with varying concentrations of test compounds for 30 minutes in a humidified incubator at 37° C. and 5% CO2. Transfer cells to a plate pre-coated with a fixed concentration of anti-human CD3 (determined separately for each donor lot) and add soluble anti-human CD28 (final concentration=1 μg/ml). Stimulate cells in a humidified incubator at 37° C. and 5% CO2 for 4 hours. Transfer 25 μl of supernatant to a MSD single spot plate pre-coated with an anti-human IL-2 antibody. Incubate MSD plate overnight at 4° C. with gentle shaking. Wash MSD plate 4× with wash buffer. Add SULFO-tagged detection antibody at a 1:50 dilution and incubate at room temperature shaking for 2 hours. Wash MSD plate 4× with wash buffer and add 150 μl 2×MSD read buffer. Read on an MSD instrument. Normalize data to stimulated/untreated controls to calculate % activity at each concentration of compound.
Instrumentation: • Biomek FX for liquid handling (Beckman Coulter) • MSD SECTOR S 600 (Meso Scale Discovery)
Exemplary compounds of Formula (I) were tested in the human T-cell IL-2 induction assays.

This note sets out measurements from patent publication US11612606B2, “8-aminoisoquinoline compounds and uses thereof” (priority 2018, dated 2023).

Counter-ions that a name gives are not always drawn. Like-named read-outs stand apart in the source and are kept apart here.

HPK full length, T165E S171E, sequence (Q92918 whole entry T165E/S171E, looked up): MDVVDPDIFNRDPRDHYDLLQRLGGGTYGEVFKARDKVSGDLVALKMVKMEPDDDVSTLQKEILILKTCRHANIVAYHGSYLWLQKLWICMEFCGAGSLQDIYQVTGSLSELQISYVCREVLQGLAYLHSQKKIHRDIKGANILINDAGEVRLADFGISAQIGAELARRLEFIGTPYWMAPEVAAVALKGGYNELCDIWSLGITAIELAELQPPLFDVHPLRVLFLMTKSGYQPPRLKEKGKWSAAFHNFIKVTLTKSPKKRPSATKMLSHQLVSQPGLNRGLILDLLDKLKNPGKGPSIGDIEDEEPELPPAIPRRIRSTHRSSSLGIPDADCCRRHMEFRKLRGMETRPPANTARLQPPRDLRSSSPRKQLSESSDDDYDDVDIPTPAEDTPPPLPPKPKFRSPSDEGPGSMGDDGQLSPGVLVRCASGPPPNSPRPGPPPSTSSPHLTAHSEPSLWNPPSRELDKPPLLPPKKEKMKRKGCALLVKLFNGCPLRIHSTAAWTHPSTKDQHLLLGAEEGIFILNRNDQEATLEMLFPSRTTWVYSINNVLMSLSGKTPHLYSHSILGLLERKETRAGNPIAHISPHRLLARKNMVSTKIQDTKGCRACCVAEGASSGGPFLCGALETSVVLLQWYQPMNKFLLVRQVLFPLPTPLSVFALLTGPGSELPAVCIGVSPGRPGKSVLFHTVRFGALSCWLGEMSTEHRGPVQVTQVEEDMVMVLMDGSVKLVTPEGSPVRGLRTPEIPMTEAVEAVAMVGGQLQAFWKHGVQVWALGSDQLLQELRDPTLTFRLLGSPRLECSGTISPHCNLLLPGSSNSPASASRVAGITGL

The Ki is the equilibrium dissociation constant of an inhibitor or competing ligand from its target. `Cc1c(-c2cc3cc(NC(=O)OC4CC(C)(O)C4)ncc3c(N)c2F)cnc2c1NCCO2` (stereo not shown) [Compound 486, (3-Hydroxy-3-methyl-cyclobutyl) N-[8-amino-7-fluoro-6-(8-methyl-2,3-dihydro-1H-pyrido[2,3-b][1,4]oxazin-7-yl)-3-isoquinolyl]carbamate]: in assay [1], the Ki is below 0.013 nM. In addition, the “% IL-2 increase relative to untreated cells” value in assay [2] (assayed concentration 2.778 μM) was determined as 1400%.

For `Cc1c(-c2cc3cc(NC(=O)O[C@H]4C[C@@](C)(O)[C@H]4C)ncc3c(N)c2F)cnc2c1NCCO2` [Compound 526b, (1S,2S,3R)-3-Hydroxy-2,3-dimethylcyclobutyl (8-amino-7-fluoro-6-(8-methyl-2,3-dihydro-1H-pyrido[2,3-b][1,4]oxazin-7-yl)isoquinolin-3-yl)carbamate], in assay [1], the Ki worked out at 0.016 nM. Besides, the “% IL-2 increase relative to untreated cells” value in assay [2] (assayed concentration 2.778 μM) was found to be 970%. Turning to `Cc1c(-c2cc3cc(NC(=O)O[C@H]4C[C@](C)(O)[C@@H]4C)ncc3c(N)c2F)cnc2c1NCCO2` [Compound 526c, (1S,2R,3S)-3-Hydroxy-2,3-dimethylcyclobutyl (8-amino-7-fluoro-6-(8-methyl-2,3-dihydro-1H-pyrido[2,3-b][1,4]oxazin-7-yl)isoquinolin-3-yl)carbamate], in assay [1], the Ki came to 0.015 nM. In assay [2] (assayed concentration 2.778 μM), the “% IL-2 increase relative to untreated cells” value is given as 1677%. In the case of `Cc1c(-c2cc3cc(NC(=O)O[C@H]4COC[C@@H]4F)ncc3c(N)c2F)cnc2c1NCCO2` (single isomer, unassigned) [Compound 477b], in assay [1], the Ki is 0.017 nM. Besides, the “% IL-2 increase relative to untreated cells” value in assay [2] (assayed concentration 5.469 μM) is reported as 1494%.

`Cc1c(-c2cc3cc(NC(=O)O[C@@H]4CCC(=O)N(C)C4)ncc3c(N)c2F)cnc2c1NCCO2` [Compound 409b, (R)-1-Methyl-6-oxopiperidin-3-yl (8-amino-7-fluoro-6-(8-methyl-2,3-dihydro-1H-pyrido[2,3-b][1,4]oxazin-7-yl)isoquinolin-3-yl)carbamate]: in assay [1], the Ki was 0.048 nM. Besides, the “% IL-2 increase relative to untreated cells” value in assay [2] (assayed concentration 2.778 μM) is 2838%. Take `CC[C@]1(O)C[C@H](OC(=O)Nc2cc3cc(-c4cnc5c(c4C)NCCO5)c(F)c(N)c3cn2)C1` [Compound 512b, (1r,3s)-3-Ethyl-3-hydroxycyclobutyl (8-amino-7-fluoro-6-(8-methyl-2,3-dihydro-1H-pyrido[2,3-b][1,4]oxazin-7-yl)isoquinolin-3-yl)carbamate hydrochloride]: in assay [1] (hydrochloride), the Ki was below 0.013 nM. Also, the “% IL-2 increase relative to untreated cells” value in assay [2] (assayed concentration 2.778 μM) worked out at 2613%. With `Cc1c(-c2cc3cc(NC(=O)O[C@H]4CCN(C)C4)ncc3c(N)c2F)cnc2c1NCCO2` [Compound 411a, (S)-1-Methylpyrrolidin-3-yl (8-amino-7-fluoro-6-(8-methyl-2,3-dihydro-1H-pyrido[2,3-b][1,4]oxazin-7-yl)isoquinolin-3-yl)carbamate], the Ki in assay [1] amounted to 0.25 nM. Further, in assay [2] (assayed concentration 2.778 μM), the “% IL-2 increase relative to untreated cells” value turned out to be 2119%. As for `Cc1c(-c2cc3cc(NC(=O)O[C@H]4CC[C@@H]4C#N)ncc3c(N)c2F)cnc2c1NCCO2` [Compound 535a, (1S,2R)-2-Cyanocyclobutyl (8-amino-7-fluoro-6-(8-methyl-2,3-dihydro-1H-pyrido[2,3-b][1,4]oxazin-7-yl)isoquinolin-3-yl)carbamate], in assay [1], the Ki was below 0.013 nM. For the same compound, the “% IL-2 increase relative to untreated cells” value in assay [2] (assayed concentration 2.778 μM) is recorded as 831%.

Consider `Cc1c(-c2cc3cc(NC(=O)O[C@@H]4CCN(C5COC5)C[C@H]4F)ncc3c(N)c2F)cnc2c1NCCO2` [Compound 445b, (3R,4R)-3-Fluoro-1-(oxetan-3-yl)piperidin-4-yl(8-amino-7-fluoro-6-(8-methyl-2,3-dihydro-1H-pyrido[2,3-b][1,4]oxazin-7-yl)isoquinolin-3-yl)carbamate], for which the “% IL-2 increase relative to untreated cells” value in assay [2] (assayed concentration 2.778 μM) is listed as 1436%. As for `Cc1c(-c2cc3cc(NC(=O)O[C@@H]4CCCN(C)C4)ncc3c(N)c2F)cnc2c1NCCO2` [Compound 416a, (R)-1-Methylpiperidin-3-yl (8-amino-7-fluoro-6-(8-methyl-2,3-dihydro-1H-pyrido[2,3-b][1,4]oxazin-7-yl)isoquinolin-3-yl)carbamate], the Ki in assay [1] is 0.075 nM. Also, the “% IL-2 increase relative to untreated cells” value in assay [2] (assayed concentration 2.778 μM) was found to be 2989%. On to `Cc1c(-c2cc3cc(NC(=O)O[C@H]4CCC[C@@H]4C#N)ncc3c(N)c2F)cnc2c1NCCO2` (single isomer, unassigned) [Compound 482b], for which the Ki in assay [1] is below 0.013 nM. Also, the “% IL-2 increase relative to untreated cells” value in assay [2] (assayed concentration 2.778 μM) came to 1719%. For the compound `Cc1c(-c2cc3cc(NC(=O)NC4CCOCC4)ncc3c(N)c2F)cnc2c1NCCO2` [Compound 701, 1-(8-Amino-7-fluoro-6-(8-methyl-2,3-dihydro-1H-pyrido[2,3-b][1,4]oxazin-7-yl)isoquinolin-3-yl)-3-(tetrahydro-2H-pyran-4-yl)urea], in assay [1], the Ki is below 0.013 nM. Also, the “% IL-2 increase relative to untreated cells” value in assay [2] (assayed concentration 2.778 μM) was determined as 4163%. Regarding `Cc1c(-c2cc3cc(NC(=O)O[C@H]4C[C@@H](CC#N)C4)ncc3c(N)c2F)cnc2c1NCCO2` [Compound 536b, (1s,3r)-3-(Cyanomethyl)cyclobutyl (8-amino-7-fluoro-6-(8-methyl-2,3-dihydro-1H-pyrido[2,3-b][1,4]oxazin-7-yl)isoquinolin-3-yl)carbamate], in assay [2] (assayed concentration 8.333 μM), the “% IL-2 increase relative to untreated cells” value came out at 2280%. `Cc1c(-c2cc3cc(NC(=O)N[C@H]4CCC[C@H]4F)ncc3c(N)c2F)cnc2c1NCCO2` [Compound 727b, 1-[8-Amino-7-fluoro-6-(8-methyl-2,3-dihydro-1H-pyrido[2,3-b][1,4]oxazin-7-yl)-3-isoquinolyl]-3-[(1S,2R)-2-fluorocyclopentyl]urea]: the Ki in assay [1] was below 0.013 nM. The “% IL-2 increase relative to untreated cells” value in assay [2] (assayed concentration 0.926 μM) is reported as 938%. For `Cc1c(-c2cc3cc(NC(=O)O[C@H]4C[C@H](N5CCOCC5)C4)ncc3c(N)c2F)cnc2c1NCCO2` [Compound 550a, (1r,3r)-3-Morpholinocyclobutyl (8-amino-7-fluoro-6-(8-methyl-2,3-dihydro-1H-pyrido[2,3-b][1,4]oxazin-7-yl)isoquinolin-3-yl)carbamate], the Ki in assay [1] is below 0.013 nM. The “% IL-2 increase relative to untreated cells” value in assay [2] (assayed concentration 2.778 μM) was found to be 1059%.

With `Cc1c(-c2cc3cc(NC(=O)O[C@H]4C[C@H](C(F)F)C4)ncc3c(N)c2F)cnc2c1NCCO2` [Compound 577b, (1r,3r)-3-(difluoromethyl)cyclobutyl (8-amino-7-fluoro-6-(8-methyl-2,3-dihydro-1H-pyrido[2,3-b][1,4]oxazin-7-yl)isoquinolin-3-yl)carbamate], the Ki in assay [1] was below 0.013 nM. Turning to `CCN1C[C@H](OC(=O)Nc2cc3cc(-c4cnc5c(c4C)NCCO5)c(F)c(N)c3cn2)CC1=O` (single isomer, unassigned) [Compound 478a], in assay [1], the Ki amounted to 0.25 nM. Still for that read-out and setting: as for `Cc1c(-c2cc3cc(NC(=O)O[C@H]4C[C@@](C)(C#N)C4)ncc3c(N)c2F)cnc2c1NCCO2` [Compound 537a, (1s,3s)-3-Cyano-3-methylcyclobutyl (8-amino-7-fluoro-6-(8-methyl-2,3-dihydro-1H-pyrido[2,3-b][1,4]oxazin-7-yl)isoquinolin-3-yl)carbamate], the figure is 0.015 nM.
